Experimental findings from BindingDB's records for doi:10.1111/j.1747-0285.2007.00520.x (Pfizer, 2007) are described below.

Each structure is given as a SMILES string. “And” between values parts separate entries of the source, which are not always exact repeats. Identical values can stand only once.

Coagulation factor X, sequence (P00742 41-179 limits assumed): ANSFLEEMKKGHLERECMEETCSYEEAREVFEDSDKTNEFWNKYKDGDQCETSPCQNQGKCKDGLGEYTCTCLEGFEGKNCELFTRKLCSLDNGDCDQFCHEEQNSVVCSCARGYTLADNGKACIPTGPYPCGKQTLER
Coagulation factor X, sequence (P00742 235-488 limits assumed): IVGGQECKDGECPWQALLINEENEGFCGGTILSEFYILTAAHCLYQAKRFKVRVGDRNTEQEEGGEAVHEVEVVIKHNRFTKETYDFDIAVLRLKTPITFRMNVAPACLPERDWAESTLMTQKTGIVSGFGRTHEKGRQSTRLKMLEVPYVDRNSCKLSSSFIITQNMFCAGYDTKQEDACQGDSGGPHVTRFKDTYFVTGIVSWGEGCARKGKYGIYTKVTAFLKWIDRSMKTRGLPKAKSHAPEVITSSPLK

This assay addresses Coagulation factor X (Homo sapiens, UniProt P00742). Nature of the assay: Inhibition Assay.
On to `CS(=O)(=O)c1ccccc1-c1ccc(NC(=O)[C@H]2CC(=O)CN2C(=O)Nc2ccc(Cl)cc2)c(F)c1` [4-Substituted Pyrrolidine Ring, 20], for which the IC50 turned out to be 2.9 nM.

For `NS(=O)(=O)c1ccccc1-c1ccc(NC(=O)C2CCCN2C(=O)Nc2cccc(Cl)c2)c(F)c1` (stereo not drawn) [P1 Phenyl Ring, 28], the IC50 was over 4000 nM.

Regarding `CS(=O)(=O)c1ccccc1-c1ccc(NC(=O)[C@H]2CC(F)CN2C(=O)Nc2ccc(Cl)cc2)c(F)c1` (stereo partly drawn) [4-Substituted Pyrrolidine Ring, 17], the half-maximal inhibitory concentration (IC50) was 7 nM and 1.2 nM.

As to `Cc1ccc(NC(=O)N2CCCC2C(=O)Nc2ccc(-c3ccccc3S(N)(=O)=O)cc2F)cc1` (stereo not drawn) [P1 Phenyl Ring, 24], the concentration for half-maximal inhibition (IC50) amounted to 389 nM.

In turn, `NS(=O)(=O)c1ccccc1-c1ccc(NC(=O)C2CCCN2C(=O)Nc2ccc(C(F)(F)F)cc2)c(F)c1` (stereo not drawn) [P1 Phenyl Ring, 31] had an IC50 of over 4000 nM.

Turning to `COc1ccc(NC(=O)N2CCCC2C(=O)Nc2ccc(-c3ccccc3S(N)(=O)=O)cc2F)cc1` (stereo not drawn) [P1 Phenyl Ring, 26], it took 873 nM to reach half-maximal inhibition (IC50).

The compound `Cc1ccc(NC(=O)N2CCCC2C(=O)Nc2ccc(-c3ccccc3S(N)(=O)=O)cc2F)cc1F` (stereo not drawn) [P1 Phenyl Ring, 25] showed a half-inhibitory concentration (IC50) of 516 nM.

Consider `NS(=O)(=O)c1ccccc1-c1ccc(NC(=O)C2CCCN2C(=O)Nc2ccc(Br)cc2)c(F)c1` (stereo not drawn) [P1 Phenyl Ring, 22], for which half-maximal inhibition (IC50) required 33 nM.

Compound `NS(=O)(=O)c1ccccc1-c1ccc(NC(=O)C2CCCN2C(=O)Nc2ccccc2)c(F)c1` (stereo not drawn) [P1 Phenyl Ring, 27] displayed a half-maximal inhibitory concentration (IC50) of 951 nM.

As to `NS(=O)(=O)c1ccccc1-c1ccc(NC(=O)[C@H]2CC(O)CN2C(=O)Nc2ccc(Cl)cc2)c(F)c1` (stereo partly drawn) [4-Substituted Pyrrolidine Ring, 14], the concentration for half-maximal inhibition (IC50) was found to be 0.75 nM.

In turn, `CCc1ccc(NC(=O)N2CCCC2C(=O)Nc2ccc(-c3ccccc3S(N)(=O)=O)cc2F)cc1` (stereo not drawn) [P1 Phenyl Ring, 30] registered an IC50 of over 4000 nM.

The compound `CS(=O)(=O)c1ccccc1-c1ccc(NC(=O)[C@H]2CC(F)(F)CN2C(=O)Nc2ccc(Cl)cc2)c(F)c1` [4-Substituted Pyrrolidine Ring, 21] yielded a concentration for half-maximal inhibition (IC50) of 5 nM.

`COc1cccc(NC(=O)N2CCCC2C(=O)Nc2ccc(-c3ccccc3S(N)(=O)=O)cc2F)c1` (stereo not drawn) [P1 Phenyl Ring, 32] came in with an IC50 of over 4000 nM.

`CS(=O)(=O)c1ccccc1-c1ccc(NC(=O)[C@H]2CC(O)CN2C(=O)Nc2ccc(F)cc2)c(F)c1` (stereo partly drawn) [4-Substituted Pyrrolidine Ring, 36]: the 50% inhibitory concentration (IC50) was determined as 7.6 nM.

With `NS(=O)(=O)c1ccccc1-c1ccc(NC(=O)C2CCCN2C(=O)Nc2ccccc2F)c(F)c1` (stereo not drawn) [P1 Phenyl Ring, 33], the half-inhibitory concentration (IC50) is over 4000 nM.

With `NS(=O)(=O)c1ccccc1-c1ccc(NC(=O)C2CCCN2C(=O)Nc2ccc(Cl)c(Cl)c2)c(F)c1` (stereo not drawn) [P1 Phenyl Ring, 29], the 50% inhibitory concentration (IC50) is over 4000 nM.

Turning to `CS(=O)(=O)c1ccccc1-c1ccc(NC(=O)[C@H]2CC(O)CN2C(=O)Nc2ccc(Cl)cn2)c(F)c1` (stereo partly drawn) [4-Substituted Pyrrolidine Ring, 34], the IC50 was 4.3 nM.

Compound `COC1C[C@H](C(=O)Nc2ccc(-c3ccccc3S(C)(=O)=O)cc2F)N(C(=O)Nc2ccc(Cl)cn2)C1` (stereo partly drawn) [4-Substituted Pyrrolidine Ring, 35] gave an IC50 of 1 nM.
